Drawing on PubChem BioAssay (NCI), this text covers TGI and GI50 for eight compounds.

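Five compound concentrations were applied to cells in 96-well plates for 48 hours; endpoints were derived by simple linear interpolation of the resulting dose-response curve. Here, GI50 denotes the concentration required for 50% inhibition of growth. TGI: total growth inhibition.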

Common to all, as to experiment: NCI tumour cell line growth inhibition, 48 h
The test system of experiment [1] is A549 NSCLC.
For experiment [2], the system named is DU-145 prostate.
Experiment [3] has as its system HS 578T breast.
Experiment [4] relates to MDA-MB-435.
Experiment [5] relates to OVCAR-8 ovarian.
Experiment [6] relates to SF-268 CNS.
The test system of experiment [7] is SF-295 CNS.
Experiment [8] relates to SW-620 colon.
The subject of experiment [9] is UACC-257 melanoma.
For experiment [10], the system named is UO-31 renal.

As to `COc1c2ccoc2nc2c(OC)c(OCC(O)C(C)(C)O)ccc12` (configuration not stated), the TGI in experiment [1], in experiment [2], in experiment [3], in experiment [4], in experiment [5] and in experiment [6] was above 100 µM each time. The TGI in [7], in experiment [8], in experiment [9] and in experiment [10] was above 100 µM throughout.
For `COC1=CC(c2ccc[nH]2)=N/C1=C\c1[nH]c(C)c(C(=O)CCCCCCCCC(=O)O[C@H]2CC[C@H]3C4CCc5cc(O)ccc5C4CC[C@]23C)c1C` (some centres not stated), the GI50 was 1.11 µM in [1]; 0.387 µM in experiment [2]; 0.411 µM in experiment [3]; 0.272 µM in experiment [4]; 0.378 µM in [5]; 0.429 µM in experiment [6]. For the same compound, the GI50 in experiment [7] was 1.09 µM; in [8], 0.197 µM; in experiment [9], 3.62 µM; in [10], 1.18 µM. The TGI was 8.88 µM in [1]; above 50 µM in experiment [2]; above 33.9 µM in experiment [3]; above 24.2 µM in experiment [4]; above 50 µM in experiment [5]; above 50 µM in experiment [6]. Moreover, the TGI in [7] is above 43.8 µM; in experiment [8], above 50 µM; in experiment [9] it was above 50 µM; in experiment [10], 5.3 µM.
`C/C(=N/NC(=S)Nc1ccccc1)c1nc2ccc(Cl)cc2[nH]1`: the GI50 in experiment [1] was 0.217 µM; in experiment [2], 0.0821 µM; in experiment [3], 0.57 µM; in experiment [5], 0.16 µM; in experiment [6] it was 0.0747 µM; in experiment [8] it was 0.208 µM. The GI50 is 0.236 µM in experiment [9] and 0.0738 µM in experiment [10]. Besides, the TGI in [1] was found to be 1.41 µM; in [2], 0.645 µM; in experiment [3], 1.96 µM; in [5] it was 1.15 µM; in [6] it was 0.858 µM; in experiment [8] it was 0.99 µM. For the same compound, the TGI in [9] came to 0.85 µM; in experiment [10] it was 0.795 µM.
`COc1ccc(-c2ccc(C3CC(c4ccccc4)=NN3)o2)c([N+](=O)[O-])c1` (configuration not stated): the GI50 in experiment [1] was 47.1 µM; in experiment [2] it was 82.6 µM; in experiment [3], 43 µM; in experiment [4], 32.4 µM; in experiment [5] it was 51.2 µM; in [6], 37.8 µM. Besides, the GI50 in [7] is 28.6 µM; in experiment [8], 47.5 µM; in experiment [10] it was above 100 µM. The TGI in [1], in experiment [2], in experiment [3], in experiment [4], in experiment [5] and in experiment [6] was above 100 µM throughout. In addition, the TGI in experiment [7], in experiment [8] and in experiment [10] was above 100 µM throughout.
As for `COc1cc2c(cc1OCCNC(=O)/C=C1\C[C@H]3C=Nc4cc(OCc5ccccc5)c(OC)cc4C(=O)N3C1)N=C[C@@H]1CCCN1C2=O`, the GI50 in [1] was 22.3 µM; in experiment [2] it was 19.4 µM; in [3], 5.7 µM; in experiment [4] it was 2.97 µM; in experiment [5], 3.89 µM; in experiment [6], 2.18 µM. Besides, the GI50 in [7] was 18.3 µM; in experiment [8] it was 5.36 µM; in [10] it was 22.9 µM. Further, the TGI worked out at 52.3 µM in experiment [1]; 37.3 µM in experiment [2]; 25.2 µM in experiment [3]; 9.79 µM in experiment [4]; 23.1 µM in [5]; 7.03 µM in [6]. Further, the TGI in [7] is above 100 µM; in [8], 24.7 µM; in experiment [10], 66.1 µM.
For the compound `Cc1cccc(N2C(=O)/C(=C/C(Cl)=C/c3ccc([N+](=O)[O-])cc3)SC2=S)c1C`, the GI50 in experiment [1] was 1.66 µM; in experiment [2] it was 3.98 µM; in [3], 2.8 µM; in experiment [5], 1.08 µM; in [7], 2.28 µM; in experiment [8], 1.95 µM. In addition, in experiment [10], the GI50 is 1.29 µM. In addition, the TGI was above 100 µM in experiment [1]; above 100 µM in experiment [2]; above 100 µM in experiment [3]; above 100 µM in experiment [5]; 5.25 µM in experiment [7]; 4.77 µM in experiment [8]. In [10], this compound registered a TGI of 2.56 µM.
With `CN(C)CCC(=O)Nc1ccc(-n2cc(-c3cccc(NC(=S)Nc4cccc(-c5cn(-c6ccc(NC(=O)CCN(C)C)cc6)nn5)c4)c3)nn2)cc1`, the GI50 in experiment [1] was 27.8 µM; in [2] it was above 100 µM; in [3], 33.4 µM; in [4], 26.7 µM; in [5], 42.3 µM; in experiment [6], 24.5 µM. Moreover, the GI50 in [7] is 20.2 µM; in [8] it was 4.26 µM; in experiment [9], 26.2 µM. For the same compound, the TGI in experiment [1] was above 100 µM; in [2], above 100 µM; in experiment [3], above 100 µM; in experiment [4] it was above 100 µM; in experiment [5] it was above 100 µM; in [6], 75.6 µM. Also, the figures for the TGI in experiment [7], in experiment [8] and in experiment [9] were 49 µM, above 100 µM and 67.4 µM, respectively.
On to `O=C1c2cccc3cccc(c23)C(=O)N1CCCCCN1CCN(CCN=c2cc3n(-c4ccc(Cl)cc4)c4ccccc4nc-3cc2Nc2ccc(Cl)cc2)CC1`, for which the GI50 in [1] was 25.9 µM; in experiment [2], 38.3 µM; in experiment [3], 36.8 µM; in experiment [4], 9.21 µM; in [5] it was 12 µM; in experiment [6], 23.1 µM. In addition, the results for the GI50 in experiment [7], in experiment [8] and in experiment [9] were 13 µM, 15.3 µM and 13.7 µM, respectively. In addition, the TGI in [1] was above 50 µM; in experiment [2], above 50 µM; in experiment [3] it was above 50 µM; in experiment [4], 21.4 µM; in experiment [5], above 50 µM; in experiment [6], above 50 µM. Besides, the TGI is above 50 µM in experiment [7], above 50 µM in [8] and 31.1 µM in experiment [9].
